# Test results as given in patent US20260226069A1, “GCN2 AND PERK KINASE MODULATORS AND METHODS OF USE THEREOF” (Deciphera Pharmaceuticals, LLC, priority 2023, published 2026).
# How the values were obtained:
# GCN2 kinase = molecular target: T1, GCN2 kinase (Homo sapiens, UniProt Q9P2K8); experiment: Biochemical assay for GCN2 (TR-FRET kinase activity assay); conditions: 2 nM GCN2, 1 mM ATP, 3-hour incubation
# T1 construct: G556E with a; purchased Carna Biosciences
# Procedure: Biochemical assay for GCN2
# Activity of GCN2 kinase was determined using a TR-FRET kinase activity assay (e.g., Analytical Biochemistry, 2006, 356, 108-116). Assays were conducted in 384-well plates (13 μL assay volume) using 2 nM GCN2 (Carna Biosciences), 130 nM GFP-EIf2α (Invitrogen), 0.2 mg/mL E. coli tRNA (sigma) and 1 mM ATP in kinase buffer (Invitrogen). Inhibition of GCN2 was measured by adding serial diluted test compound (final assay concentration of 0.5% DMSO) followed by a 3-hour incubation. Tb-peIF2α (pSer52) antibody (Invitrogen) (2 nM final assay concentration) in kinase buffer containing EDTA (final assay concentration of 20 mM) was added. After a 60 min incubation at room temperature, TR-FRET was monitored using an excitation wavelength of 340 nm and emission wavelengths of 490 nm and 520 nm. The emission ratio (520/490) at each compound concentration of was converted to percent inhibition using controls (i.e., reaction with no test compound and reaction with a known inhibitor) and IC50 values were calculated by fitting a four-parameter sigmoidal curve to the data using Prism (GraphPad software).
# PERK kinase = molecular target: T2, PERK kinase (Homo sapiens, UniProt Q9NZJ5, A704S); experiment: Biochemical assay for PERK (coupled pyruvate kinase/lactate dehydrogenase assay); conditions: 10 nM PERK, 1 mM ATP, reaction rate 2-3 h time frame, 30° C.
# T2 construct: GST (with thrombin site LVPRGS); purchased Beryllium
# T2 sequence (Q9NZJ5 with tags, fused parts or gaps A704S): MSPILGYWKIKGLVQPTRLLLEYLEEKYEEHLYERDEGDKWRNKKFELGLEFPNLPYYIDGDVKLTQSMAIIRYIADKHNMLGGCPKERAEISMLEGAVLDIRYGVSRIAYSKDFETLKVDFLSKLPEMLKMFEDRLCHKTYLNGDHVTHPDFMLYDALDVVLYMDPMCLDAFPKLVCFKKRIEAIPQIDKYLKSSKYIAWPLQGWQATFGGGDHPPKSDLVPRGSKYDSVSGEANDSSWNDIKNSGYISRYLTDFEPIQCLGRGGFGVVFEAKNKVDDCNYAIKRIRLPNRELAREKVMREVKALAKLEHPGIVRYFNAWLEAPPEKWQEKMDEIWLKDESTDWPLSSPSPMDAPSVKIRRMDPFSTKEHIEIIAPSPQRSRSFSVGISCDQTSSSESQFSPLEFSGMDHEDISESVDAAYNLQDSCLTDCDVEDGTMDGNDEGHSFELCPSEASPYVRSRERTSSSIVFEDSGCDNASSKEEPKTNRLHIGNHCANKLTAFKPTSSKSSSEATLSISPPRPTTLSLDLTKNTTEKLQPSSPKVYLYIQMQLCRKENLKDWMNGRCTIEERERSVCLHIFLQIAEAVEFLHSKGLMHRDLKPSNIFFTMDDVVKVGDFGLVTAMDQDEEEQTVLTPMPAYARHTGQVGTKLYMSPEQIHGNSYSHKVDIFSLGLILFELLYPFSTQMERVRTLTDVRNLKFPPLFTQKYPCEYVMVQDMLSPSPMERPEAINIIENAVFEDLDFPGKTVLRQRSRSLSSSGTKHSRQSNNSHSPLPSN
# Procedure: Biochemical Assay for PERK
# Activity of PERK kinase was determined spectroscopically using a coupled pyruvate kinase/lactate dehydrogenase assay that continuously monitors the ATP hydrolysis-dependent oxidation of NADH (Science, 2000, 289, 1938-1942). Assays were conducted in 384-well plates (100 μL final volume) using 10 nM PERK (from Beryllium), 0.25 mg/mL Myelin Basic Protein substrate, 1.5 units pyruvate kinase, 2.1 units lactate dehydrogenase, 1 mM phosphoenol pyruvate, 0.28 mM NADH and 1 mM ATP in assay buffer (100 mM Tris, pH 7.5, 15 mM MgCl2, 0.5 mM DTT, 0.004% (w/v) BSA, and 0.004% Triton X-100). Inhibition of PERK was measured by adding serial diluted test compound (final assay concentration of 1% DMSO). A decrease in absorption at 340 nm was monitored continuously for 6 hours at 30° C. on a multi-mode microplate reader (BioTek). The reaction rate was calculated using the 2-3 h time frame. The reaction rate at each concentration of compound was converted to percent inhibition using controls (i.e., reaction with no test compound and reaction with a known inhibitor) and IC50 values were calculated using software routines in Prism (GraphPad software).
# [1] = system: ASNase treated CCRF-CEM cells; experiment: CCRF-CEM ASNase cell proliferation assay, phenotypic assay for cellular inhibition of GCN2; assay type: cell-based; conditions: Homo sapiens, 1 mU/mL ASNase, 72 h, resazurin
# Procedure: CCRF-CEM ASNase Cell Proliferation Assay, a Phenotypic Assay for Cellular Inhibition of GCN2.
# CCRF-CEM leukemia cells (catalog #CCL-116) were obtained from the American Type Culture Collect (ATTC, Manassas, VA). Cells were grown in RPMI-1640 medium supplemented with 10% heat-inactivated fetal bovine serum (Invitrogen, Carlsbad, CA) and 1% Penicillin/Streptomycin/L-Glutamine at 37° C., 5% CO2, and 95% humidity. Cells were expanded until reaching one million cells per mL at which time they are subcultured or harvested for assay use. Ten thousand cells per well in 200 μL RPMI-1640 supplemented with 10% heat-inactivated fetal bovine serum and 1% Penicillin/Streptomycin were dispensed into a 96-well black clear bottom plate. A serial dilution of test compound and 1 mU/mL ASNase was added in triplicate and plates were incubated for 72 h at 37° C., 5% CO2, and 95% humidity. At the end of the incubation, 40 μL of a […] solution of resazurin (Sigma, St. Louis, MO) in PBS was added to each well of the plate and plates were incubated for an additional 6 h at 37° C., 5% CO2, and 95% humidity. Plates were read on a Synergy2 or equivalent reader (Biotek, Winooski VT) using an excitation of 540 nm and an emission of 600 nm. Data was analyzed using GraphPad Prism software (GraphPad, San Diego, CA) to calculate IC50 values.
# [2] = system: ATF4 in Thapsigargin stimulated CCRF-CEM cells; experiment: CCRF-CEM TG ATF4 ELISA, phenotypic assay for cellular inhibition of PERK preactivated by thapsigargin; assay type: cell-based; conditions: Homo sapiens, 3 h, compound three hours then 1 μM thapsigargin for an additional hour
# Procedure: CCRF-CEM TG ATF4 ELISA, a Phenotypic Assay for Cellular Inhibition of PERK Preactivated by Thapsigargin (TG)
# CCRF-CEM leukemia cells (catalog #CCL-116) were obtained from the American Type Culture Collection (ATTC, Manassas, VA). Briefly, cells were grown in RPMI-1640 medium supplemented with 10% heat-inactivated fetal bovine serum (Invitrogen, Carlsbad, CA) and 1% Penicillin/Streptomycin/L-Glutamine at 37° C., 5% CO2, and 95% humidity. Cells were expanded until reaching one million cells per mL at which time they were subcultured or harvested for assay use. One million five hundred thousand cells per well in 1 mL complete growth medium were dispensed into 12-well plates and incubated overnight. A serial dilution of test compound was added and cells were incubated at 37° C., 5% CO2, and 95% for three hours, then 1 μM thapsigargin was added and cells were incubated for an additional hour at 37° C., 5% CO2, and 95%. Cells were lysed then ATF4 levels were measured using an ELISA assay (Proteintech, Rosemont, IL). Absorbance was measured at 450 nm and 544 nM using a Synergy2 or equivalent reader (Biotek, Winooski VT). Data was analyzed using PRISM software (Graphpad, San Diego, CA) to calculate IC50 values.
# [3] = system: ATF4 in H929 Multiple Myeloma cells; experiment: H929 ATF4 ELISA assay; assay type: cell-based; conditions: four hours, fold stimulation of cellular ATF4 relative to vehicle treated control
# Procedure: H929 multiple myeloma cells (catalog #CRL-9068) were obtained from the American Type Culture Collection (ATTC, Manassas, VA). Briefly, cells were grown in RPMI-1640 medium supplemented with 20% heat-inactivated fetal bovine serum (catalog #A3840002, ThermoFisher Scientific, Waltham, MA), 1% Penicillin/Streptomycin/L-Glutamine (catalog #10378016, ThermoFisher Scientific, Waltham, MA), and 0.05 mM 2-mercaptoethanol (catalog #21985-023, ThermoFisher Scientific, Waltham, MA) at 37° C., 5% CO2, and 95% humidity. Cells were expanded until reaching one million five hundred thousand cells per mL at which time they were sub-cultured or harvested for assay use. One million five hundred thousand cells per well in 1 mL complete growth medium were dispensed into 12-well plates and incubated overnight. A serial dilution of test compound was added, and cells were incubated at 37° C., 5% CO2, and 95% for four hours. Cells were lysed then ATF4 levels were measured using an ELISA assay (Proteintech, Rosemont, IL). Absorbance is measured at 450 nm and 544 nM using a Synergy2 or equivalent reader (Biotek, Winooski VT). Data were analyzed using PRISM software (Graphpad, San Diego, CA) to calculate fold stimulation of cellular ATF4 relative to vehicle treated control.
Compound,IC50 (GCN2 kinase),IC50 (PERK kinase),IC50 [1],IC50 [2],H929 NS ATF4 ELISA [3]
"CC(=O)OCc1cc(Cl)cc(S(=O)(=O)Nc2cccc(-c3nc(C)n4ccnc(N)c34)c2F)c1Cl [Example 1, 3-(N-(3-(8-amino-3-methylimidazo[1,5-a]pyrazin-1-yl)-2-fluorophenyl)sulfamoyl)-2,5-dichlorobenzyl acetate]",1000 to 10000 nM,100 to 500 nM,500 to 1000 nM,500 to 1000 nM,++++ (an ATF4 stim greater than 20-fold)
"Cc1nc(-c2cccc(NS(=O)(=O)c3cc(Cl)cc(CO)c3Cl)c2F)c2c(N)nccn12 [Example 2, N-(3-(8-amino-3-methylimidazo[1,5-a]pyrazin-1-yl)-2-fluorophenyl)-2,5-dichloro-3-(hydroxymethyl)benzenesulfonamide]",100 to 500 nM,≤ 100 nM,100 to 500 nM,100 to 500 nM,+++ (an ATF4 stim greater than 10-fold and less than or equal to 20-fold)
Nc1ncnn2ccc(-c3cccc(NS(=O)(=O)c4cc(Cl)cc(CO)c4Cl)c3F)c12 [Example 3],100 to 500 nM,≤ 100 nM,100 to 500 nM,100 to 500 nM,++ (an ATF4 stim greater than 5-fold and less than or equal to 10-fold)
Cc1nc(-c2cc(NS(=O)(=O)c3cc(Cl)cc(CO)c3Cl)cc(F)c2F)c2c(N)nccn12 [Example 4],≤ 100 nM,≤ 100 nM,1000 to 10000 nM,1000 to 10000 nM,+ (an ATF4 stim less than or equal to 5-fold)
CC(C)(C)c1nc(-c2cccc(NS(=O)(=O)c3cc(Cl)cc(CO)c3Cl)c2F)c2c(N)nccn12 [Example 9],100 to 500 nM,≤ 100 nM,100 to 500 nM,100 to 500 nM,+++ (an ATF4 stim greater than 10-fold and less than or equal to 20-fold)
Nc1nccn2c(-c3ccccc3)nc(-c3cccc(NS(=O)(=O)c4cc(Cl)cc(CO)c4Cl)c3F)c12 [Example 12],≤ 100 nM,≤ 100 nM,100 to 500 nM,500 to 1000 nM,++++ (an ATF4 stim greater than 20-fold)
Cc1cc(-c2cccc(NS(=O)(=O)c3cc(Cl)cc(CO)c3Cl)c2F)c2c(N)ncnn12 [Example 13],100 to 500 nM,≤ 100 nM,100 to 500 nM,100 to 500 nM,+++ (an ATF4 stim greater than 10-fold and less than or equal to 20-fold)

# More lines, main results first:
IC50 (GCN2 kinase),IC50 (PERK kinase),IC50 [1],IC50 [2],Compound,H929 NS ATF4 ELISA [3]
≤ 100 nM,≤ 100 nM,≤ 100 nM,100 to 500 nM,Nc1nccn2c(C3CC3)nc(-c3cccc(NS(=O)(=O)c4cc(Cl)cc(CO)c4Cl)c3F)c12 [Example 14],++ (an ATF4 stim greater than 5-fold and less than or equal to 10-fold)
≤ 100 nM,≤ 100 nM,≤ 100 nM,100 to 500 nM,CC(C)c1nc(-c2cccc(NS(=O)(=O)c3cc(Cl)cc(CO)c3Cl)c2F)c2c(N)nccn12 [Example 16],+++ (an ATF4 stim greater than 10-fold and less than or equal to 20-fold)
≤ 100 nM,≤ 100 nM,100 to 500 nM,100 to 500 nM,Nc1nccn2c(C3CCC3)nc(-c3cccc(NS(=O)(=O)c4cc(Cl)cc(CO)c4Cl)c3F)c12 [Example 17],+++ (an ATF4 stim greater than 10-fold and less than or equal to 20-fold)
≤ 100 nM,≤ 100 nM,100 to 500 nM,500 to 1000 nM,NC(=O)c1cc(-c2cccc(NS(=O)(=O)c3cc(Cl)cc(CO)c3Cl)c2F)c2c(N)ncnn12 [Example 18],++ (an ATF4 stim greater than 5-fold and less than or equal to 10-fold)
≤ 100 nM,≤ 100 nM,100 to 500 nM,500 to 1000 nM,Nc1nccn2c(-c3cn[nH]c3)nc(-c3cccc(NS(=O)(=O)c4cc(Cl)cc(CO)c4Cl)c3F)c12 [Example 19],++ (an ATF4 stim greater than 5-fold and less than or equal to 10-fold)
≤ 100 nM,≤ 100 nM,≤ 100 nM,≤ 100 nM,Cn1cc(-c2nc(-c3cccc(NS(=O)(=O)c4cc(Cl)cc(CO)c4Cl)c3F)c3c(N)nccn23)cn1 [Example 20],++ (an ATF4 stim greater than 5-fold and less than or equal to 10-fold)
≤ 100 nM,≤ 100 nM,100 to 500 nM,100 to 500 nM,CSc1nc(-c2cccc(NS(=O)(=O)c3cc(Cl)cc(CO)c3Cl)c2F)c2c(N)nccn12 [Example 21],+++ (an ATF4 stim greater than 10-fold and less than or equal to 20-fold)
≤ 100 nM,≤ 100 nM,100 to 500 nM,100 to 500 nM,CNC(=O)c1nc(-c2cccc(NS(=O)(=O)c3cc(Cl)cc(CO)c3Cl)c2F)c2c(N)nccn12 [Example 22],++++ (an ATF4 stim greater than 20-fold)
≤ 100 nM,≤ 100 nM,100 to 500 nM,100 to 500 nM,CNc1nc(-c2cccc(NS(=O)(=O)c3cc(Cl)cc(CO)c3Cl)c2F)c2c(N)nccn12 [Example 26],++ (an ATF4 stim greater than 5-fold and less than or equal to 10-fold)
1000 to 10000 nM,≤ 100 nM,1000 to 10000 nM,100 to 500 nM,Cn1cc(-c2cccc(NS(=O)(=O)c3cc(F)c(Br)cc3F)c2F)c2c(N)ncnc21 [Example 38],+ (an ATF4 stim less than or equal to 5-fold)
